This passage reports ED50 results from ChEMBL document CHEMBL1123163, “Absolute configuration of (-)-5-benzoyl-1,2-dihydro-3H-pyrrolo[1,2-alpha]pyrrole-1-carboxylic acid, the active enantiomer of ketorolac” (1986).

One experiment has as its system Rattus norvegicus. In words: Antiinflammatory activity using carrageenan rat paw edema assay along with 15 mg/kg of phenylbutazone. The class given is functional. In general terms: In the carrageenan paw model, swelling and tenderness develop within hours.
The next experiment has as its system Mus musculus. As to the kind of experiment: Analgesic activity using mouse phenylquinone writhing assay along with 70 mg/kg of aspirin. The class given is functional. Background: An intraperitoneal irritant provokes the stretching counted in writhing tests.

In the case of `O=C(c1ccccc1)C1CCC2[C@H](C(=O)O)CCN12` (stereo partly specified), the ED50 is 3 mg/kg with Rattus norvegicus and below 3 mg/kg in the experiment with Mus musculus.

For the molecule `O=C(O)C1CCN2C(C(=O)c3ccccc3)CCC12` (racemic), the ED50 turned out to be 96 mg/kg with Rattus norvegicus and 399 mg/kg in the experiment on Mus musculus.

For `O=C(c1ccccc1)C1CCC2[C@@H](C(=O)O)CCN12` (stereo partly specified), the ED50 with Rattus norvegicus came out at 170 mg/kg; in the experiment on Mus musculus, 699 mg/kg.

One may read the ED50 as the dose at which the effect has come halfway, by size or by number of responders. Higher therefore signals weaker potency.
